In brackets after ≈: the same amount, converted by molar mass. Activity calls are given as the source filed them. The calls are words filed in the database; no cut-off is given here.
Tests used:
[1] = biological target: Coagulation factor XI (Homo sapiens, UniProt P03951); experiment: Binding affinity to human coagulation factor 11a using L-Pyroglutamyl-L-prolyl-L-arginine p-Nitroaniline as substrate assessed as inhibition constant measured upto 120 mins by spectrophotometric analysis
[2] = tested on: Plasma; experiment: Anticoagulant activity in human plasma assessed as activated partial thromboplastin time; type: functional
[3] = Oral bioavailability in Sprague-Dawley rat at 1.10 mg/kg; type: ADME, organism-based; conditions: in vivo, dose 1.1 mg/kg
[4] = Metabolic stability in human liver microsomes assessed as half life; type: ADME, Microsome
[5] = Apparent permeability across apical to basolateral side in human Caco2 cells; type: ADME, cell-based; conditions: Caco-2, read-out: permeability
[6] = Clearance in Sprague-Dawley rat at 1.10 mg/kg, po or 0.55 mg/kg, iv; type: ADME, organism-based; conditions: in vivo, dose 1.1 mg/kg
[7] = Half life in Sprague-Dawley rat at 1.10 mg/kg, po or 0.55 mg/kg, iv; type: ADME, organism-based; conditions: in vivo, dose 1.1 mg/kg
[8] = Volume of distribution at steady state in Sprague-Dawley rat at 1.10 mg/kg, po or 0.55 mg/kg, iv; type: ADME, organism-based; conditions: in vivo, dose 1.1 mg/kg, read-out: Vdss
[9] = Metabolic stability in Sprague-Dawley rat liver microsomes assessed as half life; type: ADME, Microsome; design: dose or concentration left out as unconfirmed
[10] = Protein binding in Sprague-Dawley rat plasma assessed as bound fraction; type: ADME, cell-free; design: dose or concentration left out as unconfirmed
[11] = AUC in Sprague-Dawley rat at 1.10 mg/kg, po; type: ADME, organism-based; design: dose 1.1 mg/kg; conditions: in vivo, 1.1 mg/kg
[12] = Clearance in Sprague-Dawley rat at 1.06 mg/kg, po or 0.53 mg/kg, iv; type: ADME, organism-based; conditions: in vivo
[13] = Half life in Sprague-Dawley rat at 1.06 mg/kg, po or 0.53 mg/kg, iv; type: ADME, organism-based; conditions: in vivo
[14] = Volume of distribution at steady state in Sprague-Dawley rat at 1.06 mg/kg, po or 0.53 mg/kg, iv; type: ADME, organism-based; conditions: in vivo, read-out: Vdss
[15] = AUC in Sprague-Dawley rat at 1.06 mg/kg, po; type: ADME, organism-based; design: dose 1.06 mg/kg; conditions: in vivo
[16] = Oral bioavailability in Sprague-Dawley rat at 1.06 mg/kg; type: ADME, organism-based; conditions: in vivo
[17] = biological target: Chymotrypsin (Homo sapiens, UniProt Q99895+P17538+P40313+Q6GPI1); experiment: Binding affinity to human chymotrypsin assessed as inhibition constant using 3-Carbomethoxypropionyl-L-arginyl-Lprolyl-L-tyrosine p-Nitroaniline as substrate measured upto 120 mins by spectrophotometric analysis; type: protein assay
[18] = Fraction unbound in human plasma; type: ADME, cell-free
[19] = Clearance in cynomolgus monkey at 1.50 mg/kg, po or 0.50 mg/kg, iv; type: ADME, organism-based, Macaca fascicularis; conditions: in vivo, dose 1.5 mg/kg
[20] = Volume of distribution at steady state in cynomolgus monkey at 1.50 mg/kg, po or 0.50 mg/kg, iv; type: ADME, organism-based, Macaca fascicularis; conditions: in vivo, dose 1.5 mg/kg, read-out: Vdss
[21] = Protein binding in cynomolgus monkey plasma; type: ADME, cell-free, Macaca fascicularis; conditions: read-out: PPB (converted)
[22] = Clearance in Sprague-Dawley rat at 1.04 mg/kg, po or 0.52 mg/kg, iv; type: ADME, organism-based; conditions: in vivo
[23] = Half life in Sprague-Dawley rat at 1.04 mg/kg, po or 0.52 mg/kg, iv; type: ADME, organism-based; conditions: in vivo
[24] = Volume of distribution at steady state in Sprague-Dawley rat at 1.04 mg/kg, po or 0.52 mg/kg, iv; type: ADME, organism-based; conditions: in vivo, read-out: Vdss
[25] = species: Homo sapiens; experiment: Inhibition of Phosphodiesterase (unknown origin) at 16 to 94 ug/ml; conditions: dose 16-94 µg/ml
[26] = species: Homo sapiens; experiment: Inhibition of Monoamine oxidase (unknown origin) at 16 to 94 ug/ml; conditions: dose 16-94 µg/ml
[27] = biological target: Acetylcholinesterase (Homo sapiens) (UniProt P22303); experiment: Inhibition of acetylcholinesterase (unknown origin) at 16 to 94 ug/ml; conditions: dose 16-94 µg/ml
[28] = AUC in Sprague-Dawley rat at 1.04 mg/kg, po; type: ADME, organism-based; design: dose 1.04 mg/kg; conditions: in vivo
[29] = Oral bioavailability in Sprague-Dawley rat at 1.04 mg/kg; type: ADME, organism-based; conditions: in vivo
[30] = Half life in cynomolgus monkey at 1.50 mg/kg, po or 0.50 mg/kg, iv; type: ADME, organism-based, Macaca fascicularis; conditions: in vivo, dose 1.5 mg/kg
[31] = Metabolic stability in cynomolgus monkey liver microsomes assessed as half life; type: ADME, Macaca fascicularis, Microsome; design: dose or concentration left out as unconfirmed
[32] = Oral bioavailability in cynomolgus monkey at 1.50 mg/kg; type: ADME, organism-based, Macaca fascicularis; conditions: in vivo, dose 1.5 mg/kg
[33] = AUC in cynomolgus monkey at 1.50 mg/kg, po; type: ADME, organism-based, Macaca fascicularis; design: dose 1.5 mg/kg; conditions: in vivo, 1.5 mg/kg
[34] = Aqueous solubility of the compound at pH 6.5; type: physicochemical; conditions: aqueous medium
[35] = Aqueous solubility of the compound at pH 1.0; type: physicochemical; conditions: aqueous medium
[36] = Fraction unbound in Sprague-Dawley rat plasma; type: ADME, cell-free
[37] = biological target: Coagulation factor VII (Homo sapiens, UniProt P08709); experiment: Binding affinity to recombinant human coagulation factor 7a assessed as inhibition constant using N-alpha-Benzyloxycarbonyl-D-arginyl-glycyl-Larginine p-Nitroaniline as substrate measured upto 120 mins by coupled enzyme assay
Chain of Coagulation factor VII (P08709 61-212 limits assumed): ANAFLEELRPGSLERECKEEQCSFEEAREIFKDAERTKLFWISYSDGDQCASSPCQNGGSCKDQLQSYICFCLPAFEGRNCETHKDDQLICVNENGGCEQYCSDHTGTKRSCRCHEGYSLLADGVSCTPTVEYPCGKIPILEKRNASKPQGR
Chain of Coagulation factor VII (P08709 213-466 limits assumed): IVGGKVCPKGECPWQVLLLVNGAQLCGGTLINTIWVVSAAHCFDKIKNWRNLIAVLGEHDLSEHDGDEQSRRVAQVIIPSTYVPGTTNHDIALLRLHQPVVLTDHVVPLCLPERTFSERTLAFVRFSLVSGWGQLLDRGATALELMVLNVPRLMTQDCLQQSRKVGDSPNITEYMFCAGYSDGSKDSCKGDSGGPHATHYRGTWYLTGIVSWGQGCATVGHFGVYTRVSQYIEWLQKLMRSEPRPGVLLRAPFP

[38] = biological target: Coagulation factor IX (Homo sapiens, UniProt P00740); experiment: Binding affinity to human coagulation factor 9a assessed as inhibition constant using Methylsulfonyl-D-cyclohexylglycyl-glycylarginine 7-amino-4-methylcoumarin as substrate measured upto 120 mins by spectrofluorometric analysis
Chain of Coagulation factor IX (P00740 47-191 limits assumed): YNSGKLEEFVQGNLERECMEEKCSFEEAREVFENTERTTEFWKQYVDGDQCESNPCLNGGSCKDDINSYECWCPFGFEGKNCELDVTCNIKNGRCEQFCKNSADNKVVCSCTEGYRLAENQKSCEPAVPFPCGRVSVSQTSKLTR
Chain of Coagulation factor IX (P00740 227-461 limits assumed): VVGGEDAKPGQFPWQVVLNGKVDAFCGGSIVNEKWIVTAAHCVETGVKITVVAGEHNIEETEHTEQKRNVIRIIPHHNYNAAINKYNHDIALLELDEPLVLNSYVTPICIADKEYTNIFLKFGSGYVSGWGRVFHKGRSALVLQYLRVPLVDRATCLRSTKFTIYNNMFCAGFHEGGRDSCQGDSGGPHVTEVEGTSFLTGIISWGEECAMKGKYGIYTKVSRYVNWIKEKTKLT

[39] = biological target: Coagulation factor X (Homo sapiens, UniProt P00742); experiment: Binding affinity to human coagulation factor 10a assessed as inhibition constant using N-Benzoyl-L-isoleucyl-L-glutamyl-glycyl-Larginine p-Nitroaniline and its gamma glutamyl methyl ester as substrate measured upto 120 mins by spectrophotometric analysis
Chain of Coagulation factor X (P00742 41-179 limits assumed): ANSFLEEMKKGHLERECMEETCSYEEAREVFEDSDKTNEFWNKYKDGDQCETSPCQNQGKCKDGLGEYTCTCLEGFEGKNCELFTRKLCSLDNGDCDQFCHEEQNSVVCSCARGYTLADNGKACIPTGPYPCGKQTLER
Chain of Coagulation factor X (P00742 235-488 limits assumed): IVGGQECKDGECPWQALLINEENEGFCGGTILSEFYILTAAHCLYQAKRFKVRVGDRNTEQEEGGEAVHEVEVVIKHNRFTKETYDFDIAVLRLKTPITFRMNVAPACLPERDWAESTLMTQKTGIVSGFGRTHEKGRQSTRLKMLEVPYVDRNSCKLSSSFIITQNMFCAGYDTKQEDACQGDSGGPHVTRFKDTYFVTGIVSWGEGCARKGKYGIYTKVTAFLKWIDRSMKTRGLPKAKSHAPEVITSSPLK

[40] = biological target: Coagulation factor XII (Homo sapiens, UniProt P00748); experiment: Binding affinity to human coagulation factor 12a assessed as inhibition constant using H-D-Cyclohexylalanyl-glycyl-arginyl p-Nitroaniline as substrate measured upto 120 mins by spectrophotometric analysis
Chain of Coagulation factor XII (P00748 20-372 limits assumed): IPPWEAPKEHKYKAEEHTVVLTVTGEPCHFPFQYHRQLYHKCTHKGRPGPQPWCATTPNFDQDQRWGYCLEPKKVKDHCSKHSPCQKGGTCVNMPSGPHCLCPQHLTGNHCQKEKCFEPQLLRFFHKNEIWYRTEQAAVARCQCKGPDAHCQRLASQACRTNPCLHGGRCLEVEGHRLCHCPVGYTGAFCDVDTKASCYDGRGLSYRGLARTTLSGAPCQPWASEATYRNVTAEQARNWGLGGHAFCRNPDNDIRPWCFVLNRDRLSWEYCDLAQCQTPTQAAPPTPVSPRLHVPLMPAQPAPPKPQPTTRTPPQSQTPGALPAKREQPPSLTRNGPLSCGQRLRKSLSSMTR
Chain of Coagulation factor XII (P00748 373-615 limits assumed): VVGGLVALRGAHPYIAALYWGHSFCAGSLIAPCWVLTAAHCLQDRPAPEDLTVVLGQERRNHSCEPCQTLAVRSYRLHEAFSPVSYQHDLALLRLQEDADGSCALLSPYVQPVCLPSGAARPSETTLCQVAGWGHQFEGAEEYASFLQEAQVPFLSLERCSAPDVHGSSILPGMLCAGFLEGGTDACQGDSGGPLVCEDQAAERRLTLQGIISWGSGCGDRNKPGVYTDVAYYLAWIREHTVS

[41] = biological target: Kallikrein-1 (Homo sapiens, UniProt P06870); experiment: Binding affinity to human tissue kallikrein-1 assessed as inhibition constant using H-D-Valyl-L-leucyl-L-arginine 7-amino-4-trifluoromethylcoumarin as substrate measured upto 120 mins by spectrofluorometric analysis; type: tissue-based
Chain of Kallikrein-1 (P06870 whole entry): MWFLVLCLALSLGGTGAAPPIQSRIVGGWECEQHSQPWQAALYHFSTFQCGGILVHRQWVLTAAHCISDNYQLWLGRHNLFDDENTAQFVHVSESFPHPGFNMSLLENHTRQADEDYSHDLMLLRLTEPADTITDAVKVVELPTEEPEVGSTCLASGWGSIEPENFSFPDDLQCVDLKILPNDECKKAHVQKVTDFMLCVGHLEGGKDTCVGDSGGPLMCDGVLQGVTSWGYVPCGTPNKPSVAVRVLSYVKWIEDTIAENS

[42] = biological target: Trypsin (Homo sapiens, UniProt P07477+P07478+P35030); experiment: Binding affinity to human trypsin assessed as inhibition constant using N-Benzoyl-L-isoleucyl-L-glutamyl-glycyl-Larginine p-Nitroaniline and its gamma glutamyl methyl ester as substrate measured upto 120 mins by spectrophotometric analysis; type: protein assay
[43] = biological target: Vitamin K-dependent protein C (Homo sapiens, UniProt P04070); experiment: Binding affinity to human activated protein C assessed as inhibition constant using L-Pyroglutamyl-L-prolyl-L-arginine p-Nitroaniline as substrate measured upto 120 mins by spectrophotometric analysis
[44] = biological target: Plasminogen (Homo sapiens, UniProt P00747); experiment: Binding affinity to human plasmin assessed as inhibition constant using H-D-Valyl-L-leucyl-L-lysine p-Nitroaniline as substrate measured upto 120 mins by spectrophotometric analysis
Chain of Plasminogen (P00747 97-580 limits assumed): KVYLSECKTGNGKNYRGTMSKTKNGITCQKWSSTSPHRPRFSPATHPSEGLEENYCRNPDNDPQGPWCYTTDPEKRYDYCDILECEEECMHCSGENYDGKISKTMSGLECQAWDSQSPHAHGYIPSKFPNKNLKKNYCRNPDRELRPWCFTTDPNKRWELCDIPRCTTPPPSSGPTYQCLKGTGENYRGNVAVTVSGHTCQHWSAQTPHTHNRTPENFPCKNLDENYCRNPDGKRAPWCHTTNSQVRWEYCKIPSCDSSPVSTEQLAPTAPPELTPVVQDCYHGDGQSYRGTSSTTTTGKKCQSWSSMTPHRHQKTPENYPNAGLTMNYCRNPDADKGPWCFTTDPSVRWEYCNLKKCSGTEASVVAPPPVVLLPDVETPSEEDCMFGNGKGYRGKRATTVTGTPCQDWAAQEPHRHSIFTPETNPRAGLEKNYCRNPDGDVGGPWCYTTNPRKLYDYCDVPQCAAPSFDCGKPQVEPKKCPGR
Chain of Plasminogen (P00747 581-810 limits assumed): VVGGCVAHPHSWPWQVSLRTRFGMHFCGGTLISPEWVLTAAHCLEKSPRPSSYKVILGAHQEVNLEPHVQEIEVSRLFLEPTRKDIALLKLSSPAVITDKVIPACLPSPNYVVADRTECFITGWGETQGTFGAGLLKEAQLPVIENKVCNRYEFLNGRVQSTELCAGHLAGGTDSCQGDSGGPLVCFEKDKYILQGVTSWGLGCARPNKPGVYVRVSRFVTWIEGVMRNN

[45] = biological target: Tissue-type plasminogen activator (Homo sapiens, UniProt P00750); experiment: Binding affinity to human tissue type plasminogen assessed as inhibition constant using Methanesulfonyl-D-Cyclohexylalanyl-glycylarginine p-Nitroaniline as substrate measured upto 120 mins by spectrophotometric analysis
Chain of Tissue-type plasminogen activator (P00750 whole entry): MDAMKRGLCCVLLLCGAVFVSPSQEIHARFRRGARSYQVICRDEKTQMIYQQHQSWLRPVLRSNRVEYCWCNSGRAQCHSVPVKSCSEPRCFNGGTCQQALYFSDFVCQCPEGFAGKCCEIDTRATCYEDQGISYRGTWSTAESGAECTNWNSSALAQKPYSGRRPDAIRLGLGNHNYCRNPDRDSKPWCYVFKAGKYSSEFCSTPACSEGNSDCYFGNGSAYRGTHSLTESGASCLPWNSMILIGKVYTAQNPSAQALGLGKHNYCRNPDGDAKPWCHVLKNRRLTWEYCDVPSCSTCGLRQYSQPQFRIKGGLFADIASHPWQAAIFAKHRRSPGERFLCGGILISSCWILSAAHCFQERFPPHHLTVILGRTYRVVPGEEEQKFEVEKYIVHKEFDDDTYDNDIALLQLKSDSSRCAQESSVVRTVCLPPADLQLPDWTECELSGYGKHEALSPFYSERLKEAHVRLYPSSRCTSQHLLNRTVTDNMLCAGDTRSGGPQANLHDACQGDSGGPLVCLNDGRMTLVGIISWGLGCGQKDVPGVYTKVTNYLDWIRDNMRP

[46] = biological target: Urokinase-type plasminogen activator (Homo sapiens, UniProt P00749); experiment: Binding affinity to human urokinase assessed as inhibition constant using L-Pyroglutamyl-glycyl-L-arginine p-Nitroaniline as substrate upto 120 mins by spectrophotometric analysis
[47] = biological target: Neutrophil elastase (Homo sapiens, UniProt P08246); experiment: Binding affinity to human neutrophil elastase assessed as inhibition constant using Methoxysuccinyl-L-alanyl-L-alanyl-L-prolylL-valine p-Nitroaniline as substrate measured upto 120 mins by spectrophotometric analysis
Chain of Neutrophil elastase (P08246 whole entry): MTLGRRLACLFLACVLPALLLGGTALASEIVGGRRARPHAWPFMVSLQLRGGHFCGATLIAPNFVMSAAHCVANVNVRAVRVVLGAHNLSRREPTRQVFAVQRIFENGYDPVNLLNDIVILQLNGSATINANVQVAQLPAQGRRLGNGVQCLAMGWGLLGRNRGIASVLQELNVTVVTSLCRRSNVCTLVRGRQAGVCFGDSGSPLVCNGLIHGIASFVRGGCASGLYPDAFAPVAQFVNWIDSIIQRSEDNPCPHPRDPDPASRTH

[48] = biological target: Cathepsin G (Homo sapiens, UniProt P08311); experiment: Binding affinity to human neutrophil cathepsin G assessed as inhibition constant using Succinyl-L-alanyl-L-alanyl-L-prolyl-Lphenylalanine p-Nitroaniline as substrate measured upto 120 mins by spectrophotometric analysis
Chain of Cathepsin G (P08311 whole entry): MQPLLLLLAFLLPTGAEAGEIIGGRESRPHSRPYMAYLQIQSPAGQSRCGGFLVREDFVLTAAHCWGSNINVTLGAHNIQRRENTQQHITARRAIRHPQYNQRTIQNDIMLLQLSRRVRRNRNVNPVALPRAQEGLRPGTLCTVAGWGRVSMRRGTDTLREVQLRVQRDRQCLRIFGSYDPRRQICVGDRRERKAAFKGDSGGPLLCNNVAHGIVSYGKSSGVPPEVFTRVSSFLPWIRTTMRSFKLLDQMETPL

[49] = biological target: Myeloblastin (Homo sapiens, UniProt P24158); experiment: Binding affinity to human neutrophil proteinase 3 assessed as inhibition constant using Methoxysuccinyl-L-alanyl-L-alanyl-L-prolylL-valine p-Nitroaniline as substrate measured upto 120 mins by spectrophotometric analysis
[50] = biological target: Chymase (Homo sapiens, UniProt P23946); experiment: Binding affinity to human mast cell chymase assessed as inhibition constant using Succinyl-L-alanyl-L-alanyl-L-prolyl-L phenylalanine p-Nitroaniline as substrate measured upto 120 mins by spectrophotometric analysis
Chain of Chymase (P23946 whole entry): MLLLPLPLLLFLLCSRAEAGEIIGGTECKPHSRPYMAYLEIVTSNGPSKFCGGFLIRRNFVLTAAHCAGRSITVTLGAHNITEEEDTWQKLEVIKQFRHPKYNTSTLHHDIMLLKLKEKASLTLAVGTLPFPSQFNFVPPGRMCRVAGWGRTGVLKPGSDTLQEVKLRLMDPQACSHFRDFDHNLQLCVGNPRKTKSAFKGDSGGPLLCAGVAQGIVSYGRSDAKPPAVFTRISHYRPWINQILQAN

Chain of Coagulation factor XI (P03951 19-387 limits assumed): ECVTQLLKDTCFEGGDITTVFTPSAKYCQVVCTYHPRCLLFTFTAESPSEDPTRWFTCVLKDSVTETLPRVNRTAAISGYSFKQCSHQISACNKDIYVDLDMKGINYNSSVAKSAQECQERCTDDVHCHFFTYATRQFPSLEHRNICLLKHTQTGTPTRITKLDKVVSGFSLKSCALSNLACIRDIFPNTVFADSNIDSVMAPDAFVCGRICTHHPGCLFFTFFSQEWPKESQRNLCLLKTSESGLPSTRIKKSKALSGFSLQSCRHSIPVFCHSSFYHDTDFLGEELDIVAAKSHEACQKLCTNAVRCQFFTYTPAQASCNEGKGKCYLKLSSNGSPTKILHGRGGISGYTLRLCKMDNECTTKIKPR
Chain of Coagulation factor XI (P03951 388-625 limits assumed): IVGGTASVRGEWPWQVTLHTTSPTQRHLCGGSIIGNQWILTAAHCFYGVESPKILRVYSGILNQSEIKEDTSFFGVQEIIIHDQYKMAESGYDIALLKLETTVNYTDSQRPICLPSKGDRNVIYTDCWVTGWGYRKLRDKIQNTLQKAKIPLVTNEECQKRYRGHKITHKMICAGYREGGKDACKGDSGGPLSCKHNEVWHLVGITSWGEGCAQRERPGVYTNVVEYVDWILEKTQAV

C[C@@H]1CCC[C@H](N2CCC(c3cc(Cl)ccc3-n3cccn3)=CC2=O)c2cc(ccn2)-c2c(cnn2C)NC1=O
Ki [1]: 11 nM | EC1.5 [2]: 8.9 µM

C[C@@H]1CCC[C@H](N2CCC(c3cc(Cl)ccc3-n3ccnn3)=CC2=O)c2cc(ccn2)-c2c(cnn2C(F)F)NC1=O
bioavailability [3]: 7% | EC1.5 [2]: 0.45 µM | half-life [4]: 1.67 h | Papp A→B [5]: < 1.5 ×10⁻⁶ cm/s | clearance [6]: 42 mL/min/kg | half-life [7]: 0.5 h | Vd [8]: 1.2 L/kg | half-life [9]: > 2 h | fraction unbound [10]: 0.249 | AUC [11]: 0.068 µM·h

C[C@@H]1CCC[C@H](N2CCC(c3cc(Cl)ccc3-n3cc(Cl)nn3)=CC2=O)c2cc(ccn2)-c2c(cnn2C(F)F)NC1=O
Ki [1]: 0.07 nM | EC1.5 [2]: 0.39 µM | half-life [4]: > 2 h | half-life [9]: > 2 h | fraction unbound [10]: 0.06 | clearance [12]: 17 mL/min/kg | half-life [13]: 1.2 h | Vd [14]: 1.4 L/kg | AUC [15]: 0.3 µM·h | bioavailability [16]: 18%

CCn1ncc2c1-c1ccnc(c1)[C@@H](N1CCC(c3cc(Cl)ccc3-n3ccnn3)=CC1=O)CCC[C@@H](C)C(=O)N2
Ki [1]: 1.3 nM | EC1.5 [2]: 0.48 µM | half-life [4]: 0.167 h

C[C@@H]1CCC[C@H](n2cnc(-c3cc(Cl)ccc3-n3cc(Cl)nn3)cc2=O)c2cc(ccn2)-c2c(cnn2C(F)F)NC1=O [MILVEXIAN]
Ki [17]: 35 nM | fraction unbound [18]: 0.085 | clearance [19]: 10.3 mL/min/kg | Vd [20]: 2.2 L/kg | fraction unbound [21]: 0.109 | EC1.5 [2]: 0.5 µM | half-life [4]: > 2 h | half-life [9]: > 2 h | fraction unbound [10]: 0.029 | clearance [22]: 7.1 mL/min/kg | half-life [23]: 1.4 h | Vd [24]: 0.9 L/kg | inhibition [25]: inactive | inhibition [26]: inactive | inhibition [27]: inactive | AUC [28]: 0.7 µM·h | bioavailability [29]: 18% | half-life [30]: 2.7 h | half-life [31]: 1.38 h | bioavailability [32]: 32% | AUC [33]: 1.22 µM·h | solubility [34]: 6 µg/mL (≈ 9.58 µM) | solubility [35]: 8 µg/mL (≈ 12.8 µM) | fraction unbound [36]: 0.029 | Ki [37]: 1200 nM | Ki [38]: > 27000 nM | Ki [39]: > 13000 nM | Ki [40]: > 3000 nM | Ki [41]: > 11000 nM | Ki [42]: 720 nM | Ki [43]: > 21000 nM | Ki [44]: 2650 nM | Ki [45]: 2300 nM | Ki [46]: 3900 nM | Ki [47]: > 8000 nM | Ki [48]: > 20000 nM | Ki [49]: > 12000 nM | Ki [50]: > 13000 nM

C[C@@H]1CCC[C@H](N2CCC(c3c(F)ccc(Cl)c3F)=CC2=O)c2cc(ccn2)-c2nn(C)cc2NC1=O
Ki [1]: 171 nM

C[C@@H]1CCC[C@H](N2CCC(c3cc(Cl)ccc3-n3ccnn3)=CC2=O)c2cc(ccn2)-c2c(cnn2CC(F)F)NC1=O
Ki [1]: 11 nM | EC1.5 [2]: 1.54 µM | half-life [4]: 1.27 h

C[C@@H]1CCC[C@H](N2CCC(c3cc(Cl)ccc3-n3ccnn3)=CC2=O)c2cc(ccn2)-c2c(cnn2C2CCC2)NC1=O
EC1.5 [2]: 3.04 µM | half-life [4]: 0.1 h

Reference: ChEMBL document CHEMBL5038606 (J Med Chem, 2022)
